Results as given in patent US8546389B2 (priority 2010, dated 2013).

Key:
1b (BK) NS5bΔ21 = 1b (BK) NS5bΔ21 (Hepatitis C virus genotype 1b (isolate BK) (HCV), UniProt P26663); assay: HCV polymerase inhibition assay, genotype 1b; format: biochemical, HCV genotype 1b (BK); settings: 1b (BK) NS5bΔ21, 33P-GTP incorporation; read-out: 1b polymerase IC50 (range class)
Method: HCV polymerase reactions were carried out using a modified method of Howe et al., Antimicrobial Agents and Chemotherapy 2004 48(12): 4813-4821. Reactions contained a final concentration of, 0.5% DMSO, 50 nM, 1b (BK) NS5bΔ21, 20 mM Tris-HCl pH 7.5, 5 mM MgCl2, 5 mM MnCl2, 3 mM DTT, 0.05% BSA, 0.2 U/μL RNasin, 10 μg/mL Poly(rC) template, GTP (at Km) and 0.05 μCi/μL ^33P-GTP in a total reaction volume of 50 μL. Compounds were tested in a three fold dilution series, for example starting from 50 μM. Reactions were initiated with the addition of GTP and terminated after 1 hour with 50 μL ice cold 0.2 M EDTA. Terminated reactions were transferred to DEAE 96-well filter plates, unincorporated nucleotides washed from the filters and 50 μL scintillation fluid added prior to reading on a scintillation counter. Similarly, a genotype 3a (VRL-69) NS5bΔ21 polymerase enzyme assay was conducted using essentially the same method.
The compound concentration that reduced ^33P-GTP incorporation by 50% (IC50) was calculated using non-linear regression.

[1] = test system: genotype 1b (Con 1) subgenomic replicon cell line; assay: HCV replicon assay, genotype 1b (Renilla luciferase); format: cell-based, HCV genotype 1b (Con 1); settings: Hepatitis C virus; genotype 1b replicon, 72 hours, luciferase; read-out: genotype 1b EC50 (range class)
Method: A genotype 1b (Con 1) subgenomic replicon cell line based on Blight et al., Science 2000 290: 1972-1974, modified to express a Renilla luciferase reporter gene was used to assess antiviral activity of test compounds. Cell cultures were maintained in a sub-confluent state in DMEM with glutamine, 10% heat-inactivated foetal bovine serum (FBS) and G418 (Geneticin®).
For assay, cells were seeded at a density of 7000 cells/well into 96 well tissue culture trays in culture media lacking G418. Compounds were tested in a three fold dilution series, for example starting from 50 uM. After 72 hours incubation at 37° C. and 5% CO2, Renilla luciferase activity was quantified via the Promega Renilla Luciferase or Renilla-Glo™ Luciferase Assay Systems (Promega corporation. The same method was employed for replicon assays using subgenomic genotype 1a and 2a replicon cell lines with a seeding cell density of 5000 cells/well for the 2a cell lines.
The compound concentration that reduced luciferase activity by 50% (EC50) was calculated using non-linear regression.

Sequence of 1b (BK) NS5bΔ21 (P26663 2420-2989): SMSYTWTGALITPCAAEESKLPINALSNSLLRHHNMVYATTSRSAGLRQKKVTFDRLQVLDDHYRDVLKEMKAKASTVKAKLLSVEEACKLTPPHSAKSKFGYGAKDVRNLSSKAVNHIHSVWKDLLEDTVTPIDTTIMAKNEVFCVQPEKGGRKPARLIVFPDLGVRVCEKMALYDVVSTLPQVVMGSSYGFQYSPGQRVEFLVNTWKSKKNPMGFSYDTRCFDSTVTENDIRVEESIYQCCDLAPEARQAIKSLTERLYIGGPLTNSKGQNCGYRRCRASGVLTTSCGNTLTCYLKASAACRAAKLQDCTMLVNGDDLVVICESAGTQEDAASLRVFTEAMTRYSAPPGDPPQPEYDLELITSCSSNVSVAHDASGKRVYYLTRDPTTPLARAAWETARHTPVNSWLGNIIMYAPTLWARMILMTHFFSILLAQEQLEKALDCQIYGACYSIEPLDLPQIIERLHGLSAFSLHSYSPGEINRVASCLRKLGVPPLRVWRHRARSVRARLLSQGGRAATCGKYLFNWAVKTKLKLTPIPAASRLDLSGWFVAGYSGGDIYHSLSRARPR

| SMILES | IC50 (1b (BK) NS5bΔ21) [µM] | EC50 [1] [µM] |
| --- | --- | --- |
| CNC(=O)c1c2cc(C3CC3)c(N(CCCC(=O)O)S(C)(=O)=O)cc2nn1-c1ccc(Br)cc1 [Compound 89, 4-{[2-(4-bromophenyl)-5-cyclopropyl-3-(methylcarbamoyl)-2H-indazol-6-yl](methylsulfonyl)amino}butanoic acid] | < 0.99 | 10 to 50 |
| CNC(=O)c1c2cc(C3CC3)c(N(CCC(=O)O)S(C)(=O)=O)cc2nn1-c1ccc(Br)cc1 [Compound 90, N-[2-(4-bromophenyl)-5-cyclopropyl-3-(methylcarbamoyl)-2H-indazol-6-yl]-N-(methylsulfonyl)-beta-alanine] | < 0.99 | 10 to 50 |
| CNC(=O)c1c2cc(C3CC3)c(N(CCC(=O)NC(C)C)S(C)(=O)=O)cc2nn1-c1ccc(Br)cc1 [Compound 91, 2-(4-bromophenyl)-5-cyclopropyl-N-methyl-6-((methylsulfonyl)[3-oxo-3-(propan-2-ylamino)propyl]amino)-2H-indazole-3-carboxamide] | 1 to 9.99 | 1 to 9.99 |
| CCC(C)OC(=O)CCCN(c1cc2nn(-c3ccc(Br)cc3)c(C(=O)NC)c2cc1C1CC1)S(C)(=O)=O (stereo not shown) [Compound 92, butan-2-yl 4-{[2-(4-bromophenyl)-5-cyclopropyl-3-(methylcarbamoyl)-2H-indazol-6-yl](methylsulfonyl)amino}butanoate] | < 0.99 | < 0.99 |
| CNC(=O)c1c2cc(C3CC3)c(N(CCCC(=O)Oc3ccccc3)S(C)(=O)=O)cc2nn1-c1ccc(Br)cc1 [Compound 93, phenyl 4-{[2-(4-bromophenyl)-5-cyclopropyl-3-(methylcarbamoyl)-2H-indazol-6-yl](methylsulfonyl)amino}butanoate] | < 0.99 | 1 to 9.99 |
| CNC(=O)c1c2cc(C3CC3)c(N(CCCC(=O)OCOC(=O)C(C)(C)C)S(C)(=O)=O)cc2nn1-c1ccc(Br)cc1 [Compound 94, [(2,2-dimethylpropanoyl)oxy]methyl 4-{[2-(4-bromophenyl)-5-cyclopropyl-3-(methylcarbamoyl)-2H-indazol-6-yl](methylsulfonyl)amino}butanoate] | < 0.99 | 1 to 9.99 |
| CNC(=O)c1c2cc(C3CC3)c(N(CCC(CO)CO)S(C)(=O)=O)cc2nn1-c1ccc(Br)cc1 [Compound 96, 2-(4-bromophenyl)-5-cyclopropyl-6-{[4-hydroxy-3-(hydroxymethyl)butyl] (methylsulfonyl)amino}-N-methyl-2H-indazole-3-carboxamide] | < 0.99 | < 0.99 |
| CNC(=O)c1c2cc(C3CC3)c(N(CCC3COC(=O)OC3)S(C)(=O)=O)cc2nn1-c1ccc(Br)cc1 [Compound 97, 2-(4-bromophenyl)-5-cyclopropyl-N-methyl-6-{(methylsulfonyl)[2-(2-oxo-1,3-dioxan-5-yl)-ethyl]amino}-2H-indazole-3-carboxamide] | < 0.99 | 1 to 9.99 |
| CNC(=O)c1c2cc(C3CC3)c(N(CCCS(C)(=O)=O)S(C)(=O)=O)cc2nn1-c1ccc(Br)cc1 [Compound 100, 2-(4-bromophenyl)-5-cyclopropyl-N-methyl-6-[methylsulfonyl(3-methylsulfonylpropyl)amino]-2H-indazole-3-carboxamide] | < 0.99 | < 0.99 |
| CNC(=O)c1c2cc(C3CC3)c(N(CCC[S+](C)[O-])S(C)(=O)=O)cc2nn1-c1ccc(Br)cc1 (stereo not shown) [Compound 101, 2-(4-bromophenyl)-5-cyclopropyl-N-methyl-6-[3-methylsulfinylpropyl(methylsulfonyl)amino]-2H-indazole-3-carboxamide] | < 0.99 | 1 to 9.99 |
| CNC(=O)c1c2cc(C3CC3)c(N(CCCS(N)(=O)=O)S(C)(=O)=O)cc2nn1-c1ccc(Br)cc1 [Compound 102, 2-(4-Bromophenyl)-5-cyclopropyl-N-methyl-6-[methylsulfonyl(3-sulfamoylpropyl)amino]-2H-indazole-3-carboxamide] | < 0.99 | 1 to 9.99 |
| CNC(=O)c1c2cc(C3CC3)c(N3CCN(C)S3(=O)=O)cc2nn1-c1ccc(Br)cc1 [Compound 104, 2-(4-bromophenyl)-5-cyclopropyl-N-methyl-6-(5-methyl-1,1-dioxido-1,2,5-thiadiazolidin-2-yl)-2H-indazole-3-carboxamide] | 10 to 50 | 1 to 9.99 |
| CNC(=O)c1c2cc(C3CC3)c(N3CCCC3=O)cc2nn1-c1ccc(NCC(C)C)cc1 [Compound 105, 5-cyclopropyl-N-methyl-2-{4-[(2-methylpropyl)amino]phenyl}-6-(2-oxopyrrolidin-1-yl)-2H-indazole-3-carboxamide] | 10 to 50 | 1 to 9.99 |
| CNC(=O)c1c2cc(C3CC3)c(N(CC(C)O)S(C)(=O)=O)cc2nn1-c1ccc(Br)cc1 (stereo not shown) [Compound 106, 2-(4-Bromophenyl)-5-cyclopropyl-6-[2-hydroxypropyl(methylsulfonyl)amino]-N-methyl-2H-indazole-3-carboxamide] | 1 to 9.99 | 1 to 9.99 |
| CNC(=O)c1c2cc(C3CC3)c(N(C3CCNCC3)S(C)(=O)=O)cc2nn1-c1ccc(Br)cc1 [Compound 107, 2-(4-bromophenyl)-5-cyclopropyl-N-methyl-6-[methylsulfonyl(piperidin-4-yl)-amino]-2H-indazole-3-carboxamide] | 1 to 9.99 | 1 to 9.99 |
| CNC(=O)c1c2cc(C3CC3)c(N(C3CCN(S(C)(=O)=O)CC3)S(C)(=O)=O)cc2nn1-c1ccc(Br)cc1 [Compound 108, 2-(4-bromophenyl)-5-cyclopropyl-N-methyl-6-[methylsulfonyl-(1-methylsulfonyl(piperidin-4-yl))amino]-2H-indazole-3-carboxamide] | < 0.99 | 1 to 9.99 |

| SMILES | IC50 (1b (BK) NS5bΔ21) [µM] | EC50 [1] [µM] |
| --- | --- | --- |
| CCN(c1cc2nn(-c3ccc(NCC(C)C)nc3)c(C(=O)NC)c2cc1C1CC1)S(C)(=O)=O [Compound 110, 5-cyclopropyl-6-[ethyl(methylsulfonyl)amino]-2-[6-(isobutylamino)-3-pyridyl]-N-methyl-2H-indazole-3-carboxamide] | < 0.99 | < 0.99 |
| CCCN(c1cc2nn(-c3ccc(Oc4ccc(F)cc4)cc3)c(C(=O)NC)c2cc1C1CC1)S(C)(=O)=O [Compound 113] | < 0.99 | < 0.99 |
| CNC(=O)c1c2cc(C3CC3)c(N(CCN3CCCCC3)S(C)(=O)=O)cc2nn1-c1ccc(Oc2ccc(F)cc2)cc1 [Compound 114] | 1 to 9.99 | 1 to 9.99 |
| CNC(=O)c1c2cc(C3CC3)c(N(CCCOC(=O)c3ccccc3C(=O)O)S(C)(=O)=O)cc2nn1-c1ccc(Oc2ccc(F)cc2)cc1 [Compound 115] | < 0.99 | 1 to 9.99 |
| CNC(=O)c1c2cc(C3CC3)c(N(CCCOC(C)=O)S(C)(=O)=O)cc2nn1-c1ccc(Nc2ccc(F)cc2)cc1 [Compound 116] | < 0.99 | < 0.99 |
| CNC(=O)c1c2cc(C3CC3)c(N(CCCOC(=O)c3cnccn3)S(C)(=O)=O)cc2nn1-c1ccc(Oc2ccc(F)cc2)cc1 [Compound 118] | < 0.99 | < 0.99 |
| CNC(=O)c1c2cc(C3CC3)c(N(CCCO)S(C)(=O)=O)cc2nn1-c1ccc(NCC(C)C)cc1 [Compound 122] | 1 to 9.99 | < 0.99 |
| CCN(c1cc2nn(-c3ccc(Nc4ccccc4F)cc3)c(C(=O)NC)c2cc1OC)S(C)(=O)=O [Compound 123] | 1 to 9.99 | < 0.99 |
| CCN(c1cc2nn(-c3ccc(NCC(C)C)cc3)c(C(=O)NC)c2cc1OC)S(C)(=O)=O [Compound 124] | 1 to 9.99 | 1 to 9.99 |
| CCN(c1cc2nn(-c3ccccc3)c(C(=O)NC)c2cc1OC)S(C)(=O)=O [Compound 125] | 10 to 50 | 1 to 9.99 |
| CNC(=O)c1c2cc(OC)c(N(CCCO)S(C)(=O)=O)cc2nn1-c1ccc(Nc2ccccc2F)cc1 [Compound 126] | 1 to 9.99 | 1 to 9.99 |
| CNC(=O)c1c2cc(C3CC3)c(N3CCCCC3=O)cc2nn1-c1ccc(Nc2ccc(F)cc2)cc1 [Compound 127] | 10 to 50 | 1 to 9.99 |
| CNC(=O)c1c2cc(C3CC3)c(N3CCCS3(=O)=O)cc2nn1-c1ccc(Br)cc1 [Compound 128] | 1 to 9.99 | 1 to 9.99 |
| C=C(C)c1cc2c(C(=O)NC)n(-c3ccc(F)cc3)nc2cc1N(CC)S(C)(=O)=O [Compound 129] | 10 to 50 | 1 to 9.99 |
| CCN(c1cc2nn(-c3ccc(F)cc3)c(C(=O)NC)c2cc1Br)S(C)(=O)=O [Compound 132] | 1 to 9.99 | 10 to 50 |
| CNC(=O)c1c2cc(C3CC3)c(N(CCCNC(=O)CN)S(C)(=O)=O)cc2nn1-c1ccc(Br)cc1 [Compound 133] | < 0.99 | 1 to 9.99 |
